The test has as its system ACE-2. In words: ACE-2 surface protein in Calu-3 cells, flow cytometry. Format: cell-based, human. Particulars: Calu-3, 100, 500 and 1000 µM, less than L-carnitine. The method, then:
ACE-2 surface expression protein in Calu-3 cells was evaluated using FACS flow cytometry sorting. […] Cells were detached with PBS/EDTA at room temperature. FBS-containing growth media was added to cells to inactivate TE. Cells were spun for 5 min at […]. Supernatant was removed and cells were washed twice in flow buffer (PBS+0.2% FBS). Between 100,000-200,000 cells were stained for ACE-2 and BST2 (absent in Calu-3and used as a control) for 30 min on ice using goat anti-ACE-2 (R&D Systems; AF933) and PE-conjugated BST2 (BioLegend; Cat # 348406). Cells were washed once and stained with Alexa Fluor 647 donkey anti-goat for 30 min on ice. Cells were washed once, resuspended in PBS/EDTA and samples were acquired on a FACS LSR Fortessa cytometer (BD Bioscience). Data were analyzed using Flowjo (Version 10.1).
The testing was repeated with D-Carnitine as well. Cells were either stained for ACE2 using either anti-ACE2 Ab, anti-BST2 Ab or the combination or both followed by secondary Ab isotype. […] The table represents the fluorescence counts.

The structures appear in SMILES notation.

In the case of `C[N+](C)(C)C[C@@H](O)CC(=O)[O-]` [D-carnitine], the “ACE-2 surface protein levels” value is reported as “decreased significantly”.

(Values after patent US20230346735A1, “Nutritional Composition Comprising Carnitine and Method for Treating or Preventing an Infection in a Mammal” (priority 2020, published 2023).)
